Tested on: pKAP1 and pH2AX levels in MDA-MB-436 and MDA-MB-468 breast cancer cells
Assay: pKAP1 and pH2AX immunoblot, Compound B-2 and doxorubicin in MDA-MB-436 and MDA-MB-468 cells
Type: cell-based, human
Conditions: 1 μM Compound B-2 + 500 nM doxorubicin; at 8 h
Protocol: Materials and Methods. The human cancer cell lines A549 (CCL-185), DU4475 (HTB-123), MDA-MB-436 (HTB-130), and MDA-MB-468 (HTB-132) were obtained from American Type Culture Collection (ATCC; Manassas, VA). A 10 mM stock solution of Compound B-1 or Compound B-2 was prepared in DMSO and stored at −20° C. Etoposide and doxorubicin were purchased from Sigma-Aldrich (St. Louis, MO).
The A549 human lung cancer cell line was purchased from ATCC and was cultured in DMEM supplemented with 10% fetal bovine serum, 1× non-essential amino acids and 1× Penicillin/Streptomycin (complete medium). Cells were maintained at a subconfluent state by passaging every 2-3 days. Human breast cancer cells lines DU4475, MDA-MB-436, and MDA-MB-468 were purchased from ATCC and cultured in DMEM supplemented with 10% fetal bovine serum, 1× Glutamax and Penicillin/Streptomycin. Cells were maintained at a subconfluent state by passaging every 2-3 days.
Compound B-1 and Compound B-2 used in these experiments were not prepared as a co-crystals.
Breast cancer cell lines grown in 24-well (Costar, catalog #3526) or 6-well (Costar, catalog #3516) tissue culture plates to 70-80% confluence were pre-incubated with 1 μM Compound B-2 or DMSO for 15 min. Doxorubicin was added to a final concentration of either 100 nM or 500 nM from a 1000× stock prepared in DMSO. Cells were then incubated for the indicated amount of time and harvested for analysis.
Cell Lysis and Western Blot Analysis. […]
To determine that enhancement of DNA damage by concurrent treatment of cells with Compound B-2 and doxorubicin was not specific to DU4475 cells, two additional breast cancer cell lines, MDA-MB-436 and MDA-MB-468, were also pre-incubated with 1 μM Compound B-2 for 15 min, followed by addition of 500 nM doxorubicin. Cells were harvested at various time points following doxorubicin addition and analyzed for levels of pKAP1 and pH2AX by immunoblotting.

**Q.** `[2H]c1nc(C)nc([2H])c1-c1cc(NC[C@@H](C)c2cccc3c(C(=O)NC)ccnc23)ncn1` [Compound B-2] was tested. Which “pH2AX level, max enhancement vs doxorubicin alone” value did it give?
**A.** Its value is 1.5 fold.

**Q.** And the “pKAP1 level, max enhancement vs doxorubicin alone” value?
**A.** The value was 3.5-4 fold.

— patent US11980633B2, “Method for treating cancer using a combination of DNA-damaging agents and DNA-PK inhibitors” (Vertex Pharmaceuticals Incorporated, priority 2016, dated 2024)
